Measurements published in ChEMBL document CHEMBL1133163, “AMP deaminase inhibitors. 4. Further N3-substituted coformycin aglycon analogues: N3-alkylmalonates as ribose 5'-monophosphate mimetics” (J Med Chem, 2000).

Legend:
AMP deaminase 3 = molecular target: T1, AMP deaminase 3 (Homo sapiens, UniProt Q01432); assay: Inhibitory activity against porcine heart or recombinant human E-type AMPDA
T1 sequence (Q01432 whole entry): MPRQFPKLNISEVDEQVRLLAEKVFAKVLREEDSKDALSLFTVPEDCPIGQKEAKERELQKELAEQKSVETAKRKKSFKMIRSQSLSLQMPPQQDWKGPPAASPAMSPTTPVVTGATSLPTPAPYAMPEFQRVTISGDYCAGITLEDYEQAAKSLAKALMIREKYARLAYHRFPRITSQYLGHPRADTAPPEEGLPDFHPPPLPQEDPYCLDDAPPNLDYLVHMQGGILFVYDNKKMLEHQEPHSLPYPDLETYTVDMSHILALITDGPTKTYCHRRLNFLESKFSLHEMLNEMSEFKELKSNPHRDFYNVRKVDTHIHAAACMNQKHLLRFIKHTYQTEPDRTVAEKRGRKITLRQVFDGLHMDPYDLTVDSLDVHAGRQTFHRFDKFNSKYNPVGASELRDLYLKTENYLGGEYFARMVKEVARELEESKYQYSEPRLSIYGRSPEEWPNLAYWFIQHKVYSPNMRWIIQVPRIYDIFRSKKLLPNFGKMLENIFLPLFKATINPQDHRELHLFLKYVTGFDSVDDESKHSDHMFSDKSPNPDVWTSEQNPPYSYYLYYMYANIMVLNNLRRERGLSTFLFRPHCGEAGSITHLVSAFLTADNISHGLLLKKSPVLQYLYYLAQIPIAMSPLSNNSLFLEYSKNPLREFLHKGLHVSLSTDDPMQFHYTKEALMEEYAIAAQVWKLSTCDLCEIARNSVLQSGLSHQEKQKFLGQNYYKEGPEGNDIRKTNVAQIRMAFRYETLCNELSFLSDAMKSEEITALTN

Adenosine deaminase = molecular target: T2, Adenosine deaminase (Bos taurus, UniProt P56658); assay: Inhibitory activity against calf intestinal Adenosine deaminase (ADA)
T2 sequence (P56658 whole entry): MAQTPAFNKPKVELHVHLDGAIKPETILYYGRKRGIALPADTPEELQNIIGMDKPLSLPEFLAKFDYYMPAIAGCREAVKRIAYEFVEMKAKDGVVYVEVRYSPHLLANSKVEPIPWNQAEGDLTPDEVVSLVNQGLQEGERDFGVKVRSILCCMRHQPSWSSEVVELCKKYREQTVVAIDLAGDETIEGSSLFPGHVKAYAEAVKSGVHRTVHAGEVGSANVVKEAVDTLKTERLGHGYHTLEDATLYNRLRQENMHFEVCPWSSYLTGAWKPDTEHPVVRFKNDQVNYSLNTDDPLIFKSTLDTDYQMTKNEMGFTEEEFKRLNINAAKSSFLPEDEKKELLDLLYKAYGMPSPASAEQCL

Structure (SMILES)	Ki (AMP deaminase 3) [µM]	Ki (Adenosine deaminase) [µM]
CCOC(=O)C(CCCCn1cnc2c1N=CNCC2O)(Cc1ccccc1)C(=O)OCC (centres undefined)	2.6	> 7.5
CCOC(=O)C(CCCCn1cnc2c1N=CNCC2O)(Cc1ccccc1C(F)(F)F)C(=O)OCC (centres undefined)	0.36	> 7.5
CC(CCCCn1cnc2c1N=CNCC2O)(C(=O)O)C(=O)NCCc1ccccc1 (centres undefined)	2.1	> 7.5
CC(CCCCn1cnc2c1NC=NCC2O)(C(=O)O)C(=O)NC1CCCCC1 (centres undefined)	5.2	> 7.5
O=C(O)C(CCCCn1cnc2c1NC=NCC2O)C(=O)O (centres undefined)	5.1	> 7.5
O=C(O)CCCCCn1cnc2c1N=CNCC2O (centres undefined)	4.2	
O=C(O)C(CCCCn1cnc2c1N=CNCC2O)C(=O)NCc1ccc(Cl)cc1 (centres undefined)	1.3	> 7.5
O=C(O)C(CCCCn1cnc2c1N=CNCC2O)C(=O)NCc1ccccc1 (centres undefined)	2.4	> 7.5
O=C(O)C(CCCCn1cnc2c1N=CNCC2O)(Cc1ccccc1)C(=O)O (centres undefined)	0.17	> 7.5

Now from value to compound:

Ki (AMP deaminase 3) [µM]	Ki (Adenosine deaminase) [µM]	Structure (SMILES)
6	> 7.5	CC(CCCCn1cnc2c1NC=NCC2O)(C(=O)O)C(=O)O (centres undefined)
5.2	> 7.5	CC(CCCCn1cnc2c1NC=NCC2O)(C(=O)OCc1ccccc1)C(=O)OCc1ccccc1 (centres undefined)
7.8	> 7.5	CC(CCCCn1cnc2c1NC=NCC2O)(C(N)=O)C(=O)O (centres undefined)
0.041	> 7.5	O=C(O)C(CCCCn1cnc2c1NC=NCC2O)(Cc1ccccc1C(F)(F)F)C(=O)O (centres undefined)
0.04	> 7.5	O=C(O)C(CCCCn1cnc2c1NC=NCC2O)(Cc1ccc(C(F)(F)F)cc1)C(=O)O (centres undefined)
1.2	> 7.5	CC(CCCCn1cnc2c1NC=NCC2O)(Cc1cccc(C(F)(F)F)c1)C(=O)O (centres undefined)
0.25	> 7.5	O=C(OCc1ccccc1)C(CCCCn1cnc2c1N=CNCC2O)(Cc1ccccc1C(F)(F)F)C(=O)OCc1ccccc1 (centres undefined)
0.029	> 7.5	O=C(O)C(CCCCn1cnc2c1NC=NCC2O)(Cc1cccc(C(F)(F)F)c1)C(=O)O (centres undefined)
0.9	> 7.5	CC(CCCCn1cnc2c1NC=NCC2O)(C(=O)O)C(=O)OCc1ccccc1 (centres undefined)
44.8	> 500	CCOC(=O)C(C)(CCCCn1cnc2c1NC=NCC2O)C(=O)OCC (centres undefined)
0.36	> 7.5	O=C(O)C(CCCCn1cnc2c1N=CNCC2O)C(=O)OCc1ccccc1 (centres undefined)
